Results filed as inconclusive are left out.
Test system: HT29 HRAS cells, caspase 3/7 luminescence, apoptosis
Assay: apoptosis induction over several timepoints – cell-based, HT29 HRAS, caspase 3/7 luminescence, multiple timepoints, dry powder, mechanism study for HRAS target identification (AID 652070)
Settings: measured here: second timepoint caspase 3/7

O=C(NCCOCCOCCOc1ccc(N(C(=O)CCl)C(C(=O)NCCc2ccccc2)c2cccs2)cc1Cl)c1ccc(COC2C#CCCCCC2)cc1 (stereo unspecified)
AC40: > 35 µM

Source: PubChem BioAssay AID652070 (Broad Institute, 2013)
